The text below walks through data of ChEMBL document CHEMBL1147482, “Novel and potent transforming growth factor beta type I receptor kinase domain inhibitor: 7-amino 4-(2-pyridin-2-yl-5,6-dihydro-4H-pyrrolo[1,2-b]pyrazol-3-yl)-quinolines” (Bioorg Med Chem Lett, 2004).

In general, IC50 refers to the midpoint of a concentration-inhibition curve. The low end stands for greater potency, the high end for weaker potency.

SMILES strings stand for the structures.

Experiment [1] has as its system NIH3T3. Nature of the experiment: Inhibitory activity tested in NIH 3T3 cells. In kind it is functional, cell-based. Particulars: Mus musculus.
Experiment [2] in a line: Inhibitory activity against TGF-beta dependent luciferase production in mink lung cells p3TP Lux. Type of experiment: functional, cell-based.
Experiment [3] has as its target Mitogen-activated protein kinase 14 (Homo sapiens, UniProt Q16539). Nature of the experiment: Inhibitory activity against Mitogen-activated protein kinase p38.

Chain of Mitogen-activated protein kinase 14 (Q16539 whole entry): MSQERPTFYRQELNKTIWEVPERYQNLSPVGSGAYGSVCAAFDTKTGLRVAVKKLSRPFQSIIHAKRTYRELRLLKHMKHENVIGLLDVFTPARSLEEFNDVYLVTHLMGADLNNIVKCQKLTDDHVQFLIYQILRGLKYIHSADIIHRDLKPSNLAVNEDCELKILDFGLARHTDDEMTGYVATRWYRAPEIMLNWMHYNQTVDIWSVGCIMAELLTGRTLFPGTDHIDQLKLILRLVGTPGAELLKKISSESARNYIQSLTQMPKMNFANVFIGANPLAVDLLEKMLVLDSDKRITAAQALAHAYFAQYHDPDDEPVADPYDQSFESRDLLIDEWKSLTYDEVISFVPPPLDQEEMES

As for `Fc1ccc(-c2c(-c3cccc(C(F)(F)F)n3)nn3c2CCC3)cc1`, the IC50 in experiment [1] was found to be 1200 nM; in experiment [2], 2550 nM.
For `Cc1cccc(-c2nn3c(c2-c2ccc(S(C)(=O)=O)cc2)CCC3)n1`, the half-inhibitory concentration (IC50) in experiment [1] and in experiment [2] was greater than 20000 nM each time.
Turning to `CC(C)c1cccc(-c2nn3c(c2-c2ccnc4ccccc24)CCC3)n1`, the results for the IC50 in experiment [3], in experiment [1] and in experiment [2] were 15 µM, 2000 nM and 2000 nM, respectively.
`c1ccc(-c2nn3c(c2-c2ccnc4ccccc24)CCC3)nc1`: the IC50 in experiment [3] is 7.9 µM; in experiment [1], 51000 nM; in experiment [2], 345 nM.
The corresponding values for `Cc1cccc(-c2nn3c(c2-c2ccnc4ccccc24)CCC3)n1` are 0.68 µM, 280 nM and 94 nM.
The corresponding values for `Cc1cccc(-c2nn3c(c2-c2ccc(O)cc2)CCC3)n1` are 4.3 µM, 105 nM and 22 nM.
For the compound `Clc1ccc2c(-c3c(-c4ccccn4)nn4c3CCC4)ccnc2c1`, the concentration for half-maximal inhibition (IC50) in experiment [3] amounted to 1.8 µM; in experiment [1] it was 282 nM; in experiment [2], 196 nM.
The corresponding values for `COc1ccc(-c2c(-c3cccc(C)n3)nn3c2CCC3)cc1` are 4.6 µM, 397 nM and 304 nM.
On to `Cc1ccc(-c2c(-c3cccc(C)n3)nn3c2CCC3)cc1`, for which the 50% inhibitory concentration (IC50) in experiment [1] and in experiment [2] was greater than 20000 nM throughout.
For the compound `Cc1cccc(-c2nn3c(c2-c2ccnc4cc(Cl)ccc24)CCC3)n1`, the values for the IC50 in experiment [3], in experiment [1] and in experiment [2] were 0.44 µM, 727 nM and 93 nM, respectively.
The corresponding values for `Fc1ccc(-c2nn3c(c2-c2ccnc4ccccc24)CCC3)nc1` are 11 µM, 664 nM and 475 nM.
The matching figures for `CCOc1ccc2c(-c3c(-c4cccc(C)n4)nn4c3CCC4)ccnc2c1`: 0.059 µM, 152 nM and 86 nM.
The corresponding values for `CCSc1ccc2c(-c3c(-c4ccccn4)nn4c3CCC4)ccnc2c1` are 1.6 µM, 326 nM and 285 nM.
On to `Cc1cccc(-c2nn3c(c2-c2ccc(F)c(F)c2)CCC3)n1`, for which the half-inhibitory concentration (IC50) in experiment [1] came out at 1040 nM; in experiment [2], 1510 nM.
With `COc1ccc(-c2c(-c3ccccn3)nn3c2CCC3)cc1`, the concentration for half-maximal inhibition (IC50) in experiment [1] was determined as 4710 nM; in experiment [2], 6830 nM.
Take `OCc1cccc(-c2nn3c(c2-c2ccc(F)cc2)CCC3)n1`: the figures for the IC50 in experiment [1] and in experiment [2] were 5620 nM and 11800 nM, respectively.
With `Cc1cccc(-c2nn3c(c2-c2ccc(F)cc2)CCC3)n1`, the IC50 in experiment [3] was greater than 20 µM; in experiment [1], 339 nM; in experiment [2], 96 nM.
The matching figures for `Fc1ccc(-c2c(-c3ccccn3)nn3c2CCC3)cc1`: greater than 20 µM, 3330 nM and 3860 nM.
The corresponding values for `CCc1cccc(-c2nn3c(c2-c2ccnc4ccccc24)CCC3)n1` are 0.62 µM, 500 nM and 143 nM.
Turning to `CCS(=O)(=O)c1ccc2c(-c3c(-c4ccccn4)nn4c3CCC4)ccnc2c1`, the half-inhibitory concentration (IC50) in experiment [3] is 9.8 µM; in experiment [2] it was greater than 20000 nM.
For `Cc1cccc(-c2n[nH]cc2-c2ccc(O)cc2)n1`, the half-maximal inhibitory concentration (IC50) in experiment [3] is 31 µM.
